Experimental data published in ChEMBL document CHEMBL6121020, “Neuroprotective Indole Alkaloids from the Soil-Derived Fungus Trichocladium sp. XZ8” (2025).
The source made the active and inactive calls. No cut-off for these calls is given here.

Experiments:
PC-12 [1] = assay: Neuroprotective activity against RSL3-induced ferroptosis in rat PC-12 cells assessed as increase in survival rate at 10 uM preincubated with RSL3 stimulation followed by compound addition and measured after 24 hrs by CCK-8 assay (reference value: 54%); assay type: functional
PC-12 [2] = assay: Neuroprotective activity against RSL3-induced ferroptosis in rat PC-12 cells assessed as increase in survival rate at 10 uM preincubated with RSL3 stimulation followed by compound addition and measured after 24 hrs by CCK-8 assay; assay type: functional, cell-based
PC-12 [3] = assay: Upregulation of SLC7A11 expression in RSL3-induced rat PC-12 cells at 10 uM preincubated with compound for 24 hrs followed by RSL3 stimulation and measured after 24 hrs by Western blotting analysis; assay type: functional, cell-based; settings: time 48.0 hrs
PC-12 [4] = assay: Downregulation of NCOA4 level in RSL3-induced rat PC-12 cells at 10 uM preincubated with compound for 24 hrs followed by RSL3 stimulation and measured after 24 hrs by Western blotting analysis; assay type: functional, cell-based; settings: time 48.0 hrs
PC-12 [5] = assay: Anti-ferroptosis activity against RSL3-induced ferroptosis in rat PC-12 cells assessed as decrease in lipid peroxidation at 10 uM by BODIPY-C11 581/591 staining based fluorescence microscopic analysis; assay type: functional, cell-based
PC-12 [6] = assay: Upregulation of ferritin level in RSL3-induced rat PC-12 cells at 10 uM preincubated with compound for 24 hrs followed by RSL3 stimulation and measured after 24 hrs by Western blotting analysis; assay type: functional, cell-based; settings: time 48.0 hrs
PC-12 [7] = assay: Anti-ferroptosis activity against RSL3-induced ferroptosis in rat PC-12 cells assessed as increase in GSH level at 10 uM preincubated with compound for 24 hrs followed by RSL3 stimulation and measured after 24 hrs by […] method; assay type: functional, cell-based; settings: time 48.0 hrs
PC-12 [8] = assay: Effect on SLC7A11 expression in RSL3-induced rat PC-12 cells at 10 uM preincubated with compound for 24 hrs followed by RSL3 stimulation and measured after 24 hrs by Western blotting analysis; assay type: functional, cell-based; settings: time 48.0 hrs

SMILES	Activity (PC-12 [1])	Activity (PC-12 [2])	Activity (PC-12 [3])	Activity (PC-12 [4])	Activity (PC-12 [5])	Activity (PC-12 [6])	Activity (PC-12 [7])	Activity (PC-12 [8])
CC(=O)NCCc1ccc(O)cc1	83%	–	–	–	–	–	–	–
C/C=C(C)/C=C(\C)[C@H]1C(C)=C[C@]2(C)C[C@H](C)CC[C@H]2[C@@H]1C(=O)[C@H]1C(=O)NC(=O)[C@@H]1Cc1c[nH]c2ccccc12	–	Active	Active	Active	Active	Active	–	–
C/C(=C\Cc1ccc2c(c1)NC(=O)C2)C(=O)O	84%	–	–	Active	Active	Active	Active	inactive
CC(C)=CCc1ccc2c(c1)NC(=O)C2	77%	–	–	–	–	–	–	–
OCc1c[nH]c2ccccc12	–	Active	–	–	–	–	–	–
